Data taken from ChEMBL document CHEMBL4699511, “Cedrol, a Sesquiterpene Alcohol, Enhances the Anticancer Efficacy of Temozolomide in Attenuating Drug Resistance via Regulation of the DNA Damage Response and MGMT Expression” (J Nat Prod, 2020).
Blank lines part the entries; values can stand above or below the compound they belong to. Activity calls are given as the source filed them. The rule behind the calls is not given here.

Legend:
RG2 [1] = experiment: Induction of cell cycle arrest in rat RG2 cells assessed as accumulation at G0/G1 phase at 206 uM after 6 hrs by propidium iodide staining based flow cytometric analysis (reference value: 57.81 +/- 1.9%); type: functional
DBTRG-05MG [2] = experiment: Induction of cell cycle arrest in human DBTRG-05MG cells assessed as accumulation at S phase at 206 uM after 12 hrs by propidium iodide staining based flow cytometric analysis (reference value: 22.76 +/- 1.56%); type: functional
DBTRG-05MG [3] = experiment: Induction of cell cycle arrest in human DBTRG-05MG cells assessed as accumulation at G0/G1 phase at 206 uM after 6 hrs by propidium iodide staining based flow cytometric analysis (reference value: 47.16 +/- 1.55%); type: functional
RG2 [4] = experiment: Induction of apoptosis in rat RG2 cells assessed as cleaved caspace-3 expression at 206 uM after 48 hrs by Western blot analysis (reference value: 1); type: functional
[5] = molecular target: MAP kinase p38 (Homo sapiens) (UniProt O15264+Q15759+Q16539+P53778); experiment: Inhibition of p38 phosphorylation at Tyr182 residues in human DBTRG-05MG cells at 206 uM after 48 hrs by Western blot analysis (reference value: 1); type: cell-based
[6] = Effect on JNK expression in human DBTRG-05MG cells at 206 uM after 48 hrs by Western blot analysis (reference value: 1); type: functional
RG2 [7] = experiment: Induction of apoptosis in rat RG2 cells assessed as cleaved PARP expression at 206 uM after 48 hrs by Western blot analysis (reference value: 1); type: functional
DBTRG-05MG [8] = experiment: Induction of apoptosis in human DBTRG-05MG cells assessed as cleaved caspace-3 expression at 206 uM after 48 hrs by Western blot analysis (reference value: 1); type: functional
RG2 [9] = experiment: Induction of apoptosis in rat RG2 cells assessed as increase in DNA fragmentation at 206 uM after 48 hrs by TUNEL assay; type: functional, cell-based
DBTRG-05MG [10] = experiment: Induction of apoptosis in human DBTRG-05MG cells assessed as Bax expression at 206 uM after 48 hrs by Western blot analysis (reference value: 1); type: functional
RG2 [11] = experiment: Induction of apoptosis in rat RG2 cells assessed as phosphorylated PARP expression at 206 uM after 48 hrs by Western blot analysis (reference value: 1); type: functional
RG2 [12] = experiment: Induction of apoptosis in rat RG2 cells assessed as cleaved caspace-9 expression at 206 uM after 48 hrs by Western blot analysis (reference value: 1); type: functional
RG2 [13] = experiment: Inhibition of AKT phosphorylation at S473 residues in rat RG2 cells at 112.4uM after 48 hrs in presence of TMZ by Western blot analysis; type: cell-based
RG2 [14] = experiment: Induction of cell cycle arrest in rat RG2 cells assessed as CyclinB1 expression at 112.4 uM after 48 hrs in presence of TMZ by Western blot analysis (reference value: 1); type: functional
RG2 [15] = experiment: Inhibition of JNK phosphorylation at Thr183/Tyr185 residues in rat RG2 cells at 112.4uM after 48 hrs in presence of TMZ by Western blot analysis (reference value: 1); type: cell-based
RG2 [16] = experiment: Synergistic cytotoxicity against rat RG2 cells assessed as synergistic effect index at 89.9 uM after 48 hrs in presence of 515.1 uM TMZ by MTT assay; type: functional
DBTRG-05MG [17] = experiment: Potentiation of TMZ-induced antitumor activity against human DBTRG-05MG cells xenografted in BALB/c nude mouse assessed as reduction in tumor growth at 75 mg/kg, sc co-treated with TMZ for 18 days by H and E staining-based bright field microscopic analysis; type: functional, organism-based; details: time 18.0 day
[18] = molecular target: Serine/threonine-protein kinase AKT (Homo sapiens) (UniProt P31751+Q9Y243+P31749); experiment: Inhibition of AKT phosphorylation at S473 residues in human DBTRG-05MG cells at 112.4uM after 48 hrs in presence of TMZ by Western blot analysis; type: cell-based
DBTRG-05MG [19] = experiment: Synergistic cytotoxicity against human DBTRG-05MG cells assessed as synergistic effect index at 89.9 uM after 48 hrs in presence of 309 uM TMZ by MTT assay; type: functional
DBTRG-05MG [20] = experiment: Induction of cell cycle arrest in human DBTRG-05MG cells assessed as accumulation at S phase at 112.4 uM after 6 hrs in presence of TMZ by propidium iodide staining based flow cytometric analysis (reference value: 22.76 +/- 1.56%); type: functional
RG2 [21] = experiment: Synergistic cytotoxicity against rat RG2 cells assessed as combination index at 89.9 uM after 48 hrs in presence of 103 uM TMZ by MTT assay; type: functional
DBTRG-05MG [22] = experiment: Induction of cell cycle arrest in human DBTRG-05MG cells assessed as CDK4 expression at 112.4 uM after 48 hrs in presence of TMZ by Western blot analysis (reference value: 1); type: functional
DBTRG-05MG [23] = experiment: Synergistic cytotoxicity against human DBTRG-05MG cells assessed as combination index at 89.9 uM after 48 hrs in presence of 206 uM TMZ by MTT assay; type: functional
DBTRG-05MG [24] = experiment: Potentiation of TMZ-induced antitumor activity against human DBTRG-05MG cells xenografted in BALB/c nude mouse assessed as reduction in MGMT expression at 75 mg/kg, sc co-treated with TMZ for 18 days by fluorescent immunocytochemistry method; type: functional, organism-based; details: time 18.0 day
DBTRG-05MG [25] = experiment: Induction of DNA damage in human DBTRG-05MG cells assessed as ATR phosphorylation at ser428 residues at 112.4 uM after 48 hrs in presence of TMZ by Western blot analysis (reference value: 1); type: functional
RG2 [26] = experiment: Induction of cell cycle arrest in rat RG2 cells assessed as accumulation at G2/M phase at 112.4 uM after 24 hrs by propidium iodide staining based flow cytometric analysis (reference value: 20.04 +/- 0.55%); type: functional
[27] = Toxicity in BALB/c mouse xenografted with DBTRG-05MG cells assessed as reduction in body weight at 75 mg/kg, sc for 18 days co-treated with TMZ; type: organism-based; details: in vivo, 432 h, time 18 day
[28] = Synergistic cytotoxicity against rat CTX TNA2 cells assessed as synergistic effect index at 134.9 uM after 48 hrs in presence of 309 uM TMZ by MTT assay; type: cell-based; details: ctx tna2, 48 h
DBTRG-05MG [29] = experiment: Synergistic cytotoxicity against human DBTRG-05MG cells assessed as combination index at 89.9 uM after 48 hrs in presence of 309 uM TMZ by MTT assay; type: functional
DBTRG-05MG [30] = experiment: Induction of apoptosis in human DBTRG-05MG cells assessed as increase in DNA fragmentation at 112.4 uM after 48 hrs by TUNEL assay; type: functional, cell-based
RG2 [31] = experiment: Induction of apoptosis in rat RG2 cells assessed as increase in DNA fragmentation at 112.4 uM after 48 hrs in presence of TMZ by TUNEL assay; type: functional, cell-based
DBTRG-05MG [32] = experiment: Synergistic cytotoxicity against human DBTRG-05MG cells assessed as combination index at 89.9 uM after 48 hrs in presence of 103 uM TMZ by MTT assay; type: functional
DBTRG-05MG [33] = experiment: Induction of apoptosis in human DBTRG-05MG cells assessed as cleaved PARP expression at 112.4 uM after 48 hrs by Western blot analysis (reference value: 1); type: functional

Sequence of Serine/threonine-protein kinase AKT (Homo sapiens) (P31749 whole entry, looked up): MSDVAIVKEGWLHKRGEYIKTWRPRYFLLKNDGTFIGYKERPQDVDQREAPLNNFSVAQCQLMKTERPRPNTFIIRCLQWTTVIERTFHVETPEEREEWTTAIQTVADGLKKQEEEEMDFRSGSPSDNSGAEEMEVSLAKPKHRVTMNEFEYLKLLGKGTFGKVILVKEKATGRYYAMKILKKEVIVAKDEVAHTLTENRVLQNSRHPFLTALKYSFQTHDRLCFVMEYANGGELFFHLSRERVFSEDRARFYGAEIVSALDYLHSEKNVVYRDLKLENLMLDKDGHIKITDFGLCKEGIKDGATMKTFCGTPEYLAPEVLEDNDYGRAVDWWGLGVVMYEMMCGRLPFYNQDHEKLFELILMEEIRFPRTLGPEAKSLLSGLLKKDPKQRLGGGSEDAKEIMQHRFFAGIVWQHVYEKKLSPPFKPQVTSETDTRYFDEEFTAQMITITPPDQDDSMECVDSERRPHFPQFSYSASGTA
Sequence of Serine/threonine-protein kinase AKT (Homo sapiens) (P31751 whole entry, looked up): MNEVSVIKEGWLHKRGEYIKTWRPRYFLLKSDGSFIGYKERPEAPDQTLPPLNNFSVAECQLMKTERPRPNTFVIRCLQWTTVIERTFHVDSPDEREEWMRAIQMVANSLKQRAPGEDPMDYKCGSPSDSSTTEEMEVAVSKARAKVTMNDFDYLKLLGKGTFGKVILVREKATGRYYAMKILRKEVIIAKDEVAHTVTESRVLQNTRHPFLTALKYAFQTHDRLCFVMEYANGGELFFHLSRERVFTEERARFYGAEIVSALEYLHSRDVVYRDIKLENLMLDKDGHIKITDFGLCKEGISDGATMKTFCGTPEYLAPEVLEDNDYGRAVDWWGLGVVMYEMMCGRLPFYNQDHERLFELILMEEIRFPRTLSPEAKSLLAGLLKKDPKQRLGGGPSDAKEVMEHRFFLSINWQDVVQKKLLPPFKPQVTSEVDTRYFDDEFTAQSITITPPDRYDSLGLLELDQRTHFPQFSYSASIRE
Sequence of Serine/threonine-protein kinase AKT (Homo sapiens) (Q9Y243 whole entry, looked up): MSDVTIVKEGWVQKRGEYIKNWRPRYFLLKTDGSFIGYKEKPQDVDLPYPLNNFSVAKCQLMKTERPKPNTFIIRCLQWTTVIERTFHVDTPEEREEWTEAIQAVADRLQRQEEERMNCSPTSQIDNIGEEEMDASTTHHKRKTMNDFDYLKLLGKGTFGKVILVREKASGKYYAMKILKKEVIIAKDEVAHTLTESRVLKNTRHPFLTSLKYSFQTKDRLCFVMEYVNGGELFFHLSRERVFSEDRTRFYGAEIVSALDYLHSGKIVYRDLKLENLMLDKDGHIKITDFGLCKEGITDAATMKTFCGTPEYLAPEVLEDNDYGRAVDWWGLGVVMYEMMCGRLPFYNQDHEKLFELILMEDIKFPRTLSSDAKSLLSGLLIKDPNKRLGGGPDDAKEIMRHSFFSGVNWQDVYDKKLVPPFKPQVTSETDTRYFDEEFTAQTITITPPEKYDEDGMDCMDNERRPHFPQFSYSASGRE

fold change (FC) [5]: 1.2
SMILES: Cn1nnc2c(C(N)=O)ncn2c1=O [TEMOZOLOMIDE]
Activity (RG2 [1]): 54.73%
Activity (DBTRG-05MG [2]): 22.29%
Activity (DBTRG-05MG [3]): 40.56%
fold change (FC) (RG2 [4]): 2.5
fold change (FC) [6]: 0.7
fold change (FC) (RG2 [7]): 1.5
fold change (FC) (DBTRG-05MG [8]): 3.3
Activity (RG2 [9]): Active
fold change (FC) (DBTRG-05MG [10]): 1.4
fold change (FC) (RG2 [11]): 0.4
fold change (FC) (RG2 [12]): 1.7

fold change (FC) [18]: 0.5
SMILES: C[C@@H]1CC[C@H]2C(C)(C)[C@H]3C[C@@]12CC[C@@]3(C)O [CEDROL]
fold change (FC) (RG2 [13]): 0.5
fold change (FC) (RG2 [14]): 0.7
fold change (FC) (RG2 [15]): 0.6
Activity_index (RG2 [16]): 0.69
Activity (DBTRG-05MG [17]): Active
Activity_index (DBTRG-05MG [19]): 0.75
Activity (DBTRG-05MG [20]): 18.29%
CI (RG2 [21]): 0.88
fold change (FC) (DBTRG-05MG [22]): 0.6
CI (DBTRG-05MG [23]): 0.74
Activity (DBTRG-05MG [24]): Active
fold change (FC) (DBTRG-05MG [25]): 2.3
Activity (RG2 [26]): 18.42%
Activity [27]: Non-Toxic
Activity_index [28]: 0.52
CI (DBTRG-05MG [29]): 0.74
Activity (DBTRG-05MG [30]): Active
Activity (RG2 [31]): Active
CI (DBTRG-05MG [32]): 0.74
fold change (FC) (DBTRG-05MG [33]): 1
